# Laboratory results as given in patent publication US20040198774A1, “Preventive and/or remedial agent for disease attributable to arteriosclerotic activity” (priority 2001, published 2004).
# pEC50: −log10 of the molar value.
# Experiments:
# [1] = test system: MCP-1 secretion from human aortic endothelial cells (HAEC); test: Secretion of MCP-1 from TNF-α stimulated human aortic endothelial cells (ELISA); format: cell-based; conditions: test agent 0.03 to 30 μM, TNF-α 10 ng/mL for 4 hours, FIG. 2
# Method: An effect on the secretion of MCP-1 from vascular endothelial cells was investigated using human aortic endothelial cells (available from Clonetics Corp., USA, and hereienafter abbreviated as “HAEC”). In usual, the HAEC cells were cultured in EGM-2 medium (Clonetics) containing 2% FBS (Clonetics) in a CO2 incubator (5% CO2, 37° C.). On the first day, the HAEC cells suspended in EGM-2 medium containing 2% FBS were seeded in 96-well plates at 1×10^5 cells/well and then cultured. On the second day, after the cells were washed with PBS, the culture medium was replaced with 200 μL of EGM-2 medium containing 0.4% FBS and the test agent at various concentrations (0.03 to 30 μM) (final DMSO concentration: 0.1%) to culture the cells for 24 hours. On the third day, after the cells were washed with PBS, the culture medium was replaced with 200 μL of EGM-2 medium containing 0.4% FBS, TNF-α (10 ng/mL), and the test agent at various concentrations (0.03 to 30 μM) (final DMSO concentration: 0.1%) to stimulate the cells for 4 hours. After stimulation with TNF-α, the culture medium was collected to measure the MCP-1 concentration of the culture medium by the use of a human MCP-1 ELISA kit (Biosource).
# [2] = test system: VCAM-1 expression in human aortic endothelial cells (HAEC); test: Expression of VCAM-1 in TNF-α stimulated human aortic endothelial cells (cell ELISA); format: cell-based; conditions: test agent 0.03 to 30 μM, TNF-α 10 ng/mL for 4 hours, FIG. 1
# Method: An effect on the expression of adhesion molecules in vascular endothelial cells was investigated using human aortic endothelial cells (available from Clonetics Corp., USA, and hereinafter abbreviated as “HAEC”). In usual, the HAEC cells were cultured in EGM-2 medium (Clonetics) containing 2% FBS (Clonetics) in a CO2 incubator (5% CO2, 37° C.). On the first day, the HAEC cells suspended in EGM-2 medium containing 2% FBS were seeded in 96-well plates at 1×10^5 cells/well and then cultured. On the second day, after the cells were washed with PBS, the culture medium was replaced with 200 μL of EGM-2 medium containing 0.4% FBS and the test agent at various concentrations (0.03 to 30 μM) (final DMSO concentration: 0.1%) to culture the cells for 24 hours. On the third day, after the cells were washed with PBS, the culture medium was replaced with 200 μL of EGM-2 medium containing 0.4% FBS, TNF-α (10 ng/mL) and the test agent at various concentrations (0.03 to 30 μM) (final DMSO concentration: 0.1%) to stimulate the cells for 4 hours. After stimulation with TNF-α, the cells were washed with PBS, and then the amount of VCAM-1 expressed was evaluated according to the following cell ELISA method using an anti-human VCAM-1 antibody solution (PharMingen). Namely, the cells were fixed and blocked using paraformaldehyde, and then 200 μL of the anti-human VCAM-1 antibody solution (PharMingen) was added as a primary antibody to induce a primary antibody response for overnight incubation. Next day, 200 μL of HRP-labeled anti-Mouse IgG (γ+L) Goat F (Ab7)2 was added as a secondary antibody to induce a secondary antibody response for 4 hours, and then a substrate solution (ortho-phenylenediamine and hydrogen peroxide) was added. After reaction, the absorbance was measured using a microplate spectrophotometer, and the obtained absorbance was used as an index of the amount of VCAM-1 expressed.
# human PPARα = molecular target: T1, human PPARα (Homo sapiens, UniProt Q07869); test: cell-based
# T1 sequence (Q07869 239-466 limits assumed): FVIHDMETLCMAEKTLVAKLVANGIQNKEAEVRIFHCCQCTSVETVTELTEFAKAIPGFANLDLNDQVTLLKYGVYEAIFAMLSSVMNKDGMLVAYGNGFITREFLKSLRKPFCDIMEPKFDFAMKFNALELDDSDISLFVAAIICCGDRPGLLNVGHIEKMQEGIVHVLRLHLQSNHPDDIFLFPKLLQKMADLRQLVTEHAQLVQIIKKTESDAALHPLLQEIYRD
# Method: (§1) On the second day, a transfection mixture, which contained with 9 μL of TransIT-LT1 (Takara), 2 μg of the Gal4-hPPARα (LBD) vector, the Gal4-hPPARγ (LBD) vector or the Gal4-hPPARδ (LBD) vector, 1 μg of the Gal4-Luc and 200 μL of DMEM (without FBS), was gently added to the cells at 200 μL per well. The cells were cultured all day and night to carry out gene introduction to the cells. For the investigation of the specificity of the effect on the introduced PPAR genes, gene introduction was carried out in the same manner described above using a vector without PPAR ligand-binding domain (hereinafter abbreviated as a “Gal4-control vector”). On the third day, the cells in 3 wells of the 6-well plates were combined to adjust the concentration of cells to 3×10^5 cells/mL, and the obtained one was dispensed in 96-well plates at 100 μL/well to culture the cells. On the fourth day, the culture medium was replaced with 50 μL of the DMEM (+) containing the test compound at various concentrations (0.03 to 30 μM) (final DMSO concentration: 0.1%) to culture the cells. After the cells were exposed to the compound for 32 hours, 50 μL of Luc-Screen (Applied Biosystems) was added. 70 μL of the reaction solution in each well was moved to white plates to measure luminescence emitted due to the reaction of luciferase by the use of a Microplate Luminometer (EG & G berthold, LB96P).
# human PPARγ = molecular target: T2, human PPARγ (Homo sapiens, UniProt P37231); test: PPARγ transcription activation, Gal4-hPPARγ (LBD)/Gal4-Luc reporter in 293 T cells; format: cell-based; conditions: Gal4-hPPARγ (LBD) luciferase reporter, 32 hours exposure, 0.03 to 30 μM, read-out: EC50 values of PPARs transcription activation effect, PPARγ
# T2 construct: expressed in transfected cells; host or cells: 293 T cells
# T2 sequence (P37231 238-503 limits assumed): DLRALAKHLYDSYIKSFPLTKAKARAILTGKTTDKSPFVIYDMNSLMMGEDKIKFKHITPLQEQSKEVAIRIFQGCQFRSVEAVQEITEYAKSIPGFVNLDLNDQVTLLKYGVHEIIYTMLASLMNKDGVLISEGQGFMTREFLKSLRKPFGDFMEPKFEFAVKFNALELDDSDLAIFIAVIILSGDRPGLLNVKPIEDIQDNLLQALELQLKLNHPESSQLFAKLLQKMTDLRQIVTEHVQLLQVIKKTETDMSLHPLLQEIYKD
# human PPARδ = molecular target: T3, human PPARδ (Homo sapiens, UniProt Q03181); test: PPARδ transcription activation, Gal4-hPPARδ (LBD)/Gal4-Luc reporter in 293 T cells; format: cell-based; conditions: Gal4-hPPARδ (LBD) luciferase reporter, 32 hours exposure, 0.03 to 30 μM, read-out: EC50 values of PPARs transcription activation effect, PPARδ
# T3 construct: expressed in transfected cells; host or cells: 293 T cells
# T3 sequence (Q03181 211-439 limits assumed): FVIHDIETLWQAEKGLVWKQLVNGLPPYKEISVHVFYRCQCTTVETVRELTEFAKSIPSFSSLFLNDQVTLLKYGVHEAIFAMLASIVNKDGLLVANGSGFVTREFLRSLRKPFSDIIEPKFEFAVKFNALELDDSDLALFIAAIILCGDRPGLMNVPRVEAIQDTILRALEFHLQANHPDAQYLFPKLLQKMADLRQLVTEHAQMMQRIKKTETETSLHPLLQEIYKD
# Method: as §1
pEC50 (human PPARα),pEC50 (human PPARγ),pEC50 (human PPARδ),Compound,effect on the secretion of MCP-1 induced by stimulation with TNF-α [1],effect on the expression of VCAM-1 induced by stimulation with TNF-α [2]
–,–,–,CC(C)OC(=O)C(C)(C)Oc1ccc(C(=O)c2ccc(Cl)cc2)cc1 [Fenofibrate],no effect,–
–,–,–,CN(CCOc1ccc(CC2SC(=O)NC2=O)cc1)c1ccccn1 (stereo not drawn) [Rosiglitazone],no effect,no effect
–,–,–,CCc1ccc(CCOc2ccc(CC3SC(=O)NC3=O)cc2)nc1 (stereo not drawn) [Pioglitazone],no effect,no effect
–,–,–,Cc1cc(SCc2sc(-c3ccc(C(F)(F)F)cc3)nc2C)ccc1OCC(=O)O [GW501516],suppressed,suppressed
6.00,5.21,5.92,"O=C1NC(=O)C(Cc2ccc3cc(OCc4ccccc4F)ccc3c2)S1 (stereo not drawn) [MCC-555, 5-[6-(2-fluorobenzyloxy)-2-naphthyl]-methyl-thiazolidine-2,4-dione]",–,–
–,–,–,Cc1cccc(Nc2cc(Cl)nc(SCC(=O)O)n2)c1C [Wy-14643],no effect,suppressed
